Patent US8975289B2, “Benzyl aralkyl ether compounds, method for preparing same, intermediate compounds, use of said compounds, method for treatment and/or prevention, pharmaceutical composition and medicament containing same” (priority 2009, dated 2015)
In brackets after ≈: the same amount, converted by molar mass.

Tests used:
Format in all cases: cell-based
[1] = tested on: Staphylococcus aureus 6538; experiment: Broth microdilution MIC (M7-A6), bacteria, strain XVIII; conditions: strain XVIII 6538, 24 hours incubation
Experimental: (§1) For the experiments of the present invention (i) yeast strains obtained from clinical isolates and laboratory isolates, and (ii) bacterial strains obtained from laboratory isolates were used, as described in Table 5 as follows. […] The compounds were dissolved in dimethyl sulfoxide (DMSO) to match the final concentration of the compound equal to or less than 1%. The methodology used to test the sensitivity of the agent was broth microdilution according to the method described in Standard M7-A6 (Methodology of sensitivity tests to antimicrobial agents by dilution for bacteria with aerobic growth-6th Edition: NCCLS, volume 23, No. 2, USA, 2003), as follows. […] Then the suspensions were diluted in Mueller Hinton culture medium to a final concentration of 5×10^4CFU/mL. The diluted suspensions were inoculated in 0.1 mL in duplicates in […] plates. The procedure was performed in a laminar flow. […] Incubation of fungi with these compounds was carried out for 24 hours at a temperature of 30 to 35° C. […] We have agreed in this experiment that the turbid medium is the result of microbial growth and the presence of deposit and a clear medium represents the absence of microbial growth. The minimum inhibitory concentration (MIC) was defined as the lowest tested drug concentration that prevents any degree of bacterial growth.

[2] = tested on: Staphylococcus epidermidis 12228; experiment: Broth microdilution MIC (M7-A6), bacteria, strain XVII; conditions: strain XVII 12228, 24 hours incubation
Experimental: as §1

Candida albicans 10231 = experiment: Broth microdilution MIC (M27-A2), yeast, strain XIV; conditions: strain XIV 10231, 48 hours incubation
Experimental: (§2) For the experiments of the present invention (i) yeast strains obtained from clinical isolates and laboratory isolates, and (ii) bacterial strains obtained from laboratory isolates were used, as described in Table 5 as follows. The yeast strains were grown in culture medium Sabouraud Dextrose Agar maintained at a temperature of 35° C. for 48 hours. […] The compounds were dissolved in dimethyl sulfoxide (DMSO) to match the final concentration of the compound equal to or less than 1%. The methodology used to test the sensitivity of the agent was broth microdilution according to the method described in Standard M27-A2 (Reference method for broth dilution tests to determine the sensitivity of yeasts to antifungal therapy-second edition, NCCLS, volume 22 number 15, USA, 2002) as follows. […] Then the suspensions were diluted in culture medium RPMI-1640 (buffered with MOPS 0.165 mol/l) at a final concentration of 50 to 2500 CFU/mL. The diluted suspensions were inoculated in duplicate in a 96-well plate. The procedure was performed in a laminar flow. […] The incubation of fungi with these compounds was carried out for 48 hours at temperature of 30 to 35° C. […] We have agreed in this experiment that the turbid medium is the result of microbial growth and the presence of deposit and a clear medium represents the absence of microbial growth. The minimum inhibitory concentration (MIC) was defined as the lowest tested drug concentration that prevents any degree of […] growth.

[3] = tested on: Candida parapsilosis 22019; experiment: Broth microdilution MIC (M27-A2), yeast, strain XV; conditions: strain XV 22019, 48 hours incubation
Experimental: as §2

Candida glabrata 2001 = experiment: Broth microdilution MIC (M27-A2), yeast, strain XVI; conditions: strain XVI 2001, 48 hours incubation
Experimental: as §2

[4] = tested on: three different species of yeast and two distinct species of bacteria; experiment: Growth inhibition of the yeast and bacteria strains of Table 5, summary
Experimental: For the experiments of the present invention (i) yeast strains obtained from clinical isolates and laboratory isolates, and (ii) bacterial strains obtained from laboratory isolates were used, as described in Table 5 as follows.
The yeast strains were grown in culture medium Sabouraud Dextrose Agar maintained at a temperature of 35° C. for 48 hours.
The bacterial strains were grown in culture medium Triptic Soy Agar at 35° C. for two to six hours (or until the turbidity of a McFarland standard solution equal to 0.5). 5.2 Mounting of Preparations and Test For the experiments, compound 1-[2-(2,4-dichlorophenyl)-2-{[4-(trifluoromethyl)benzyl]oxy}ethyl]-1H-imidazole (BL-123) in the form of its nitrate salt, 1-[2-(2,4-dichlorophenyl)]-2-({4-[(2-phenyl)-2H-tetrazole]benzyl}oxy)ethyl]-1H-imidazole (BL-137), and miconazole nitrate were used. The compounds were dissolved in dimethyl sulfoxide (DMSO) to match the final concentration of the compound equal to or less than 1%.
The methodology used to test the sensitivity of the agent was broth microdilution according to the method described in Standard M27-A2 (Reference method for broth dilution tests to determine the sensitivity of yeasts to antifungal therapy-second edition, NCCLS, volume 22 number 15, USA, 2002) as follows.
The yeast strains were grown according to item 5.1.a to obtain a culture containing between 1×10^6 and 5×10^6 CFU/mL. […]

Clc1ccc(C(Cn2ccnc2)OCc2ccc(-c3nnn(-c4ccccc4)n3)cc2)c(Cl)c1 (stereo not drawn) [BL-137]
MIC [1]: 128.0 µg/mL (≈ 260 µM) | MIC [2]: 128.0 µg/mL (≈ 260 µM) | MIC (Candida albicans 10231): 512.0 µg/mL (≈ 1040 µM) | MIC [3]: 512.0 µg/mL (≈ 1040 µM) | MIC (Candida glabrata 2001): 512.0 µg/mL (≈ 1040 µM) | Inhibitory effect on growth (in words) [4]: exert an inhibitory effect on the growth
